Data published in ChEMBL document CHEMBL1201862, “PubChem BioAssay data set” (2004).
Calls of active or inactive are those of the source.

Assays:
[1] = molecular target: ATP-dependent molecular chaperone HSP82 (Candida albicans (strain WO-1) (Yeast), UniProt C4YTQ8); assay: steroid-induced GRE reporter decrease in yeast – S. cerevisiae, luminescence, Hsp90 inhibitor project, dose response (AID 2400); assay type: functional, cell-based;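 further: beta-galactosidase luminescence from glucocorticoid response element reporter as proxy for Hsp90 function; inhibitor potency where signal loss means Hsp90 inhibition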
ATP-dependent molecular chaperone HSP82, sequence (C4YTQ8 whole entry): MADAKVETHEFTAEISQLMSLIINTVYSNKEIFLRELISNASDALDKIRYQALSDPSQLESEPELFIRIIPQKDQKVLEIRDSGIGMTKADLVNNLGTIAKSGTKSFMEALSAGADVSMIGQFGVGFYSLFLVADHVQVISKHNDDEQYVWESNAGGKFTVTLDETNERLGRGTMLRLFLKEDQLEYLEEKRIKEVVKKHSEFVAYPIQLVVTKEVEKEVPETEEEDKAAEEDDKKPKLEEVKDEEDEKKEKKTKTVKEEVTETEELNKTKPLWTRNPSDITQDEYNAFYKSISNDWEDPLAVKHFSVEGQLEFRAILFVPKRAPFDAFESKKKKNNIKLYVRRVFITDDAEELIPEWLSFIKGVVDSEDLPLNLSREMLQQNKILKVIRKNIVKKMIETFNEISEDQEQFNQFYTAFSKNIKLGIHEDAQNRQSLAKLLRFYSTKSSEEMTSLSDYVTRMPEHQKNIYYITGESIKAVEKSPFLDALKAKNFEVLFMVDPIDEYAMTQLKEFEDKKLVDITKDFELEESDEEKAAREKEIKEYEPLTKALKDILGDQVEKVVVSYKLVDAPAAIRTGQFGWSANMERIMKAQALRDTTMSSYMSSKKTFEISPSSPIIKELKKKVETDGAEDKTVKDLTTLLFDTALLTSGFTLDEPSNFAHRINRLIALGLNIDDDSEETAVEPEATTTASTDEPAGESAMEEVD

[2] = fluconazole-exposed Candida albicans growth modulators – fluorescence, retest, confirmation (AID 2467); assay type: functional, cell-based
[3] = molecular target: T1, Serine/threonine-protein phosphatase (Candida dubliniensis (strain CD36 / CBS 7987 / NCPF 3949 / NRRLY-17841) (Yeast), UniProt B9W6M3); assay: blockers of CaCl2-induced CDRE-lacZ signaling – S. cerevisiae, luminescence, secondary, dose response (AID 2388); assay type: functional, cell-based;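 further: yeast reporter cells carrying a calcineurin-responsive lacZ construct stimulated with calcium chloride; luminescent beta-galactosidase reporter signal in whole cells rather than isolated phosphatase activity; potency for inhibition where a drop in reporter signal means calcineurin blockade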
T1 sequence (B9W6M3 whole entry): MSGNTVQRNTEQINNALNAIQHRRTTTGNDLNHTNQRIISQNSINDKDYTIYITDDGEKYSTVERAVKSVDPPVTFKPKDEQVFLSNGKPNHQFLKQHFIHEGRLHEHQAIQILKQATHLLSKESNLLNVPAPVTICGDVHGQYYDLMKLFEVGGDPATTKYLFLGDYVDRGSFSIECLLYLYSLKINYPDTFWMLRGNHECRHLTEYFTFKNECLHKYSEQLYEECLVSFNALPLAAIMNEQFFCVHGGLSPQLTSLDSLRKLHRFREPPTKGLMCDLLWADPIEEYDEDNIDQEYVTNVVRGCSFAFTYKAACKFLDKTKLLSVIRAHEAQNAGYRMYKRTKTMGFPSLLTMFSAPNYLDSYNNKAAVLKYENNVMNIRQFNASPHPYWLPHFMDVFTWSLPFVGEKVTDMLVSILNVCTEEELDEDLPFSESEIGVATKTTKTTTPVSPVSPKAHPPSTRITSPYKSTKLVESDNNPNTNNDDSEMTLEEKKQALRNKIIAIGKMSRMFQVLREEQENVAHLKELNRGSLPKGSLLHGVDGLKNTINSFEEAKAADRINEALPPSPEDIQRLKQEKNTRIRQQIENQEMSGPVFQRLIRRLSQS

[4] = NIH-3T3 fibroblast cytotoxicity, dose response, cytotoxicity control, cell-based, fluorescence, Alamar Blue, secondary assay (AID 2327); assay type: functional;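 further: NIH-3T3 mouse fibroblasts cultured with fluconazole at 8 µg/mL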
[5] = Luminescence Cell-Based Dose Retest to Confirm Inhibitors of Cancer Stem Cells. [Related pubchem assays (depositor defined):AID2717, AID2721]; assay type: functional; conditions: Homo sapiens
Escherichia coli = assay: microbe, parasite or virus in culture
HeLa = assay: ATP-based viability loss in HeLa cells – cell-based, CellTiter-Glo luminescence, cherry-pick samples, cytotoxicity control for MITF activator project, dose response (AID 540259); assay type: functional; conditions: Homo sapiens
[6] = molecular target: FAD-linked sulfhydryl oxidase ALR (Homo sapiens, UniProt P55789); assay: ALR-catalysed DTT oxidation blockers – biochemical, H2O2 detection, luminescence, cherry-pick, dose response (AID 493248)
FAD-linked sulfhydryl oxidase ALR, sequence (P55789 whole entry): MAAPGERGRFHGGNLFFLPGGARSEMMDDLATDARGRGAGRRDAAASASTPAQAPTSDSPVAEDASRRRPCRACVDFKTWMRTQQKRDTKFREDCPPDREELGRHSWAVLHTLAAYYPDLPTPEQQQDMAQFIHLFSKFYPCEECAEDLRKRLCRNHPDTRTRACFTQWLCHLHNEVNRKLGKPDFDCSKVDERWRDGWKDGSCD

[7] = viability of PTEN-deleted HCT116 cells – cell-based, HCT116 PTEN knockout, dose response (AID 1047); assay type: functional;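 further: HCT116 colon tumor cells with PTEN knocked out; cells exposed to compound for 60 hours before readout; potency for loss of cell viability measured by luminescence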
[8] = molecular target: T2, Microphthalmia-associated transcription factor (Homo sapiens, UniProt O75030); assay: reducers of TRPM1 reporter luminescence, concentration series – cell-based, SK-MEL-5, cherry-picked, set 3, MITF inhibitor project, dose response (AID 493073); assay type: functional;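 further: SK-MEL-5 melanoma cells with luciferase driven by the MITF target TRPM1 promoter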
T2 sequence (O75030 whole entry): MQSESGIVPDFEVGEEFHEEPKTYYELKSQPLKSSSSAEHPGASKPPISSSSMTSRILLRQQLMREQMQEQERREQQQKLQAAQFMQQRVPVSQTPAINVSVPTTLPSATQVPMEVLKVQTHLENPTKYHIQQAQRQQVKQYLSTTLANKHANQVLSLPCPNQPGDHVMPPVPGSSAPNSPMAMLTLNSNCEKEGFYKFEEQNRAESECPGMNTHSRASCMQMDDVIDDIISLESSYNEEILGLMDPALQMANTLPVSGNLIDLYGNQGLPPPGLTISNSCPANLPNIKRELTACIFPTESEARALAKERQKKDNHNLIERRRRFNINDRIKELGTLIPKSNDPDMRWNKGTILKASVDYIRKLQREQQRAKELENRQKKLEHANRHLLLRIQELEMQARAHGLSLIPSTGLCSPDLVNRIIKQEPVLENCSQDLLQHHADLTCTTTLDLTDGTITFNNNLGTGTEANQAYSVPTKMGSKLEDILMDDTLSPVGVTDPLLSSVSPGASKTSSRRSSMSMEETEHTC

[9] = viability of HCT116 lacking mutant beta-catenin – cell-based, human colon tumor, dose response (AID 1045); assay type: functional;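 further: HCT116 colon tumor cells with beta catenin knocked out; cells exposed to compound for 60 hours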
[10] = HPDE-C7 pancreatic duct cell viability loss – fluorescence, HTS (AID 430); assay type: functional, cell-based; conditions: Homo sapiens
[11] = Trypanosoma cruzi growth suppression in host cells – NIH3T3 host cells, beta-gal luminescence, confirmation (AID 2044); assay type: functional, cell-based;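 further: intracellular parasites grown in NIH/3T3 mouse fibroblasts as host cells; luminescent beta-galactosidase reporter signal from transgenic T. cruzi replicating inside host cells; inhibitors lower the luminescence signal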
[12] = NIH3T3 cell viability loss – ATP luminescence, mouse fibroblasts, counter-screen, dose response (AID 2010); assay type: functional, cell-based;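 further: cells exposed to compound for about 90 hours before reading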
Vero = assay: viability of Vero cells under compound – cytotoxicity control for flavivirus capping enzyme inhibitors (AID 588742); assay type: functional; conditions: Chlorocebus sabaeus
[13] = viability loss of HPDE-C7K cells – cell-based, fluorescence, HTS, primary screen (AID 431); assay type: functional; conditions: Homo sapiens
[14] = molecular target: Dual specificity tyrosine-phosphorylation-regulated kinase 1A (Rattus norvegicus, UniProt Q63470); assay type: biochemical, Homo sapiens
Mu-type opioid receptor = Mu-type opioid receptor (Homo sapiens, UniProt P35372); assay type: functional, cell-based;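 further: U2OS cells with beta-arrestin recruitment to OPRM1 by beta-gal complementation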
Mu-type opioid receptor, sequence (P35372 whole entry): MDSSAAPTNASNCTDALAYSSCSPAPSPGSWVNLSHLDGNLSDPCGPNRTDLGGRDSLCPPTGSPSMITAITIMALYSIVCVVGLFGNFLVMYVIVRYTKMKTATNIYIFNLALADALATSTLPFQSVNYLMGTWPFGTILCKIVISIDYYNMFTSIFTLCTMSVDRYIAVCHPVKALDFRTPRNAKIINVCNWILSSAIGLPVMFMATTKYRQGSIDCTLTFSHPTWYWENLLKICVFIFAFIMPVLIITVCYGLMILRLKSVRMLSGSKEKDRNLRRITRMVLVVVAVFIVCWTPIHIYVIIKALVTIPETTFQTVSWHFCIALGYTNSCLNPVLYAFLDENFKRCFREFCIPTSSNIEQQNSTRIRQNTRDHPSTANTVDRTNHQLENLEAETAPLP

[15] = molecular target: 5-hydroxytryptamine receptor 2A (Mus musculus, UniProt P35363); assay type: functional, cell-based;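 further: CHO-K1 cells with tagged receptor and beta-arrestin; agonist potency measured as compound-induced activation of the receptor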
5-hydroxytryptamine receptor 2A, sequence (P35363 whole entry): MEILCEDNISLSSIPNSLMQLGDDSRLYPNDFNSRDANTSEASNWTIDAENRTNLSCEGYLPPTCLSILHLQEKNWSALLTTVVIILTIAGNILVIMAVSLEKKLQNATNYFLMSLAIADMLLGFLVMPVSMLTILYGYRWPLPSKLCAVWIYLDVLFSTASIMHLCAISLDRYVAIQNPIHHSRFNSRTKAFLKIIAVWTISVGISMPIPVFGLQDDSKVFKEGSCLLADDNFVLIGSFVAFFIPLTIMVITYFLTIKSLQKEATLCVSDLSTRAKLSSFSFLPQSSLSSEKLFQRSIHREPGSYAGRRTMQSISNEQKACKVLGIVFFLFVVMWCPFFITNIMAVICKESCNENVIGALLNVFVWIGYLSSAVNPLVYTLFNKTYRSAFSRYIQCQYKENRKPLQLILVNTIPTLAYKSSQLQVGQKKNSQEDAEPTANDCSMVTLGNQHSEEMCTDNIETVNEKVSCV

Aminopeptidase N = molecular target: T3, Aminopeptidase N (Plasmodium falciparum FcB1/Columbia, UniProt O96935); assay: malaria alanyl aminopeptidase activity blockers – biochemical, fluorogenic H-Leu-NHMec substrate, 1536-well (AID 1445); set-up: species or system Plasmodium falciparum 3D7, 3D7
T3 sequence (O96935 whole entry): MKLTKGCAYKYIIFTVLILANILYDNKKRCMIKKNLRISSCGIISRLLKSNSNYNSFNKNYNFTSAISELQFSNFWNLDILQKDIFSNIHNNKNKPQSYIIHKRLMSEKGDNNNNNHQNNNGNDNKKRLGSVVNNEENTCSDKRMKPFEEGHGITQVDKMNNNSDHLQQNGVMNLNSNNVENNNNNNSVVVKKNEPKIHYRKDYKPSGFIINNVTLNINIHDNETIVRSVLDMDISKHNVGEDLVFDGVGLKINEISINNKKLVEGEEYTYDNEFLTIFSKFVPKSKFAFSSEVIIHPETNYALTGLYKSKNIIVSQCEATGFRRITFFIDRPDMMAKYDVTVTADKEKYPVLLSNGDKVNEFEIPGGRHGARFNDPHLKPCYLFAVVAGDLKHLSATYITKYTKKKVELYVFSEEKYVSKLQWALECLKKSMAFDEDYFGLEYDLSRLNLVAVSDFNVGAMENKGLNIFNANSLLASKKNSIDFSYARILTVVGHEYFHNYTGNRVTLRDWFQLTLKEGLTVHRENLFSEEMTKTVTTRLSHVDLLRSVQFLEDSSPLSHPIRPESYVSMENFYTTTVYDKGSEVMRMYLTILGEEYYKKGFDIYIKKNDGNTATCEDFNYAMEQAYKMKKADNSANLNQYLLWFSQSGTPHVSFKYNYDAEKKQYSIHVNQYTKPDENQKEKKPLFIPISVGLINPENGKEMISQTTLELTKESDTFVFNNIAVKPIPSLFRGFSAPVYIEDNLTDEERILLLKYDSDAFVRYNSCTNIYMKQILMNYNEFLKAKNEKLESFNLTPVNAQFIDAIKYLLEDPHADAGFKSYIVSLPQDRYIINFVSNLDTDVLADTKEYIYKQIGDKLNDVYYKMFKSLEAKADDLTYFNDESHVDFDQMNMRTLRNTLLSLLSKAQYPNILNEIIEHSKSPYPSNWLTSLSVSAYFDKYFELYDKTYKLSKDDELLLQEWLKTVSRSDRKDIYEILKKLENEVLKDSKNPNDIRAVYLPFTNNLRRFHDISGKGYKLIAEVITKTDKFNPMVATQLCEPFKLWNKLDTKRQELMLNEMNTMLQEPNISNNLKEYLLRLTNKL

With O=[N+]([O-])c1cccc(-c2cc(-c3cc(Br)ccc3O)n[nH]2)c1 the EC50 [1] was 11.9 µM (active), the EC50 [2] was 0.954 µM (active) and the EC50 [3] was > 180 µM (inactive). For the same molecule, the EC50 [4] was 19 µM (inconclusive) and the AC50 [5] was 2.03 µM (active).

For Oc1c(Br)cc(C2NC(c3ccccc3)=NO2)cc1Br (stereo not drawn), the AC50 (Escherichia coli) was 20.2 µM (active).

With Nc1ccc2oc(-c3cccs3)nc2c1 the AC50 (HeLa) was 168 µM (active) and the AC50 [6] was 0.155 µM (active).

For CCOc1ccc2nc(C)cc(Nc3cccc([N+](=O)[O-])c3)c2c1, the EC50 [7] was 5.88 µM (active), the AC50 [8] was 17.8 µM (active) and the EC50 [9] was 7.34 µM (active).

In the case of CN1CCc2c(C#N)c(N3CCCCC3)nc(NCc3ccccc3)c2C1, the EC50 [10] is reported as 16.8 µM (active), the EC50 [7] is reported as 17.8 µM (active) and the EC50 [11] is reported as 0.639 µM (active). The EC50 [12] was > 60 µM (not active), the CC50 (Vero) was > 40 µM (active) and the EC50 [13] was 2.44 µM (active). For the same molecule, the EC50 [9] was 13.5 µM (active).

With COc1cc(/C=C2/C(=N)N3C(SC)=NSC3=NC2=O)ccc1OC(=O)c1ccco1 the AC50 [14] was 5.64 µM (active).

For CC(=O)c1cccc(OCC(O)CNCC2COc3ccccc3O2)c1 (stereo not drawn), the EC50 (Mu-type opioid receptor) was 92.5 µM (inactive) and the EC50 [15] was 2.85 µM (active).

With NS(=O)(=O)c1ccc(CCNC(=O)Cc2ccc(S(=O)(=O)N3CCCC3)s2)cc1 the IC50 (Aminopeptidase N) was 8.91 µM (active) and the AC50 (Escherichia coli) was 39.6 µM (active).
